Results: patent publication US20010011063A1, “Substituted 2,4-diamino-1,3,5-triazines, processes for their preparation and their use as herbicides and plant growth regulators” (priority 1999, published 2001)

How the values were obtained:
Assay type in all cases: in vivo
[1] = system: Stellaria media, Lolium multiflorum, Amaranthus retroflexus, Sinapis alba, Avena sativa and Settaria viridis; assay: Pre-emergence effect on weeds (greenhouse pot test); settings: application rate of 1 kg or less of active substance per hectare; visually scored after 3 to 4 weeks by comparison with untreated controls
Excerpt: Seeds or rhizome pieces of mono and dicotyledonous weed plants are placed in sandy loam soil in plastic pots and covered with soil. The compounds according to the invention which are formulated in the form of wettable powders or emulsion concentrates are then applied to the soil cover in the form of aqueous suspensions or emulsions at an application rate of 600 to 800 l of water/ha (converted), in various dosages.

[2] = system: Sinapis alba, Echinochloa crus-galli, Lolium multiforum, Stellaria media, Cyperus iria, Amaranthus retroflexus, Settaria viridis and Avena sativa; assay: Post-emergence effect on weeds (greenhouse pot test); settings: application rate of 1 kg or less of active substance per hectare; treated at the three-leaf stage; scored visually after about 3 to 4 weeks vs untreated controls
Protocol: Seeds or rhizome pieces of mono- and dicotyledonous weeds are placed in sandy loam soil in plastic pots, covered with soil and grown in a greenhouse under good growth conditions. Three weeks after sowing, the test plants are treated at the three-leaf stage. The compounds according to the invention, formulated as wettable powders or emulsion concentrates, are sprayed, at various dosages, onto the green parts of the plants at an application rate of 600 to 800 l of water/ha (converted). After the test plants had remained in the greenhouse for about 3 to 4 weeks under optimum growth conditions, the effect of the preparations is scored visually by comparison with untreated controls. The agents according to the invention also have good herbicidal activity post-emergence against a broad spectrum of economically important weed grasses and broad-leaved weeds.

[3] = system: Cyperus monti, Echinochloa crus-galli and Sagitaria pygmaea; assay: Action on harmful plants in rice (paddy rice conditions); settings: poured into the dammed water, visual scoring about three weeks after application; further: test concentration or dose not given here
Excerpt: Transplanted and sown rice and also typical rice weeds (gramineous and broad-leaved) are cultivated in closed plastic pots in a greenhouse to the three-leaf stage (Echinochloa crus-galli 1.5-leaf) under paddy rice conditions (height of water: 2-3 cm). This is followed by treatment with the compounds according to the invention. For this purpose, the formulated active compounds are suspended, dissolved or emulsified in water and applied by pouring them into the dammed water around the test plants in different dosages.

CC(C)c1nc(N)nc(N[C@@H](CCCc2ccccc2)C2CC2)n1 [Example 3-11]
very good herbicidal activity: herbicidal activity pre-emergence against harmful plants [1] | herbicidal activity post-emergence against harmful plants [2] | herbicidal activity against harmful plants which are typical for rice crops [3]

CC(C)(F)c1nc(N)nc(N[C@@H](CCCc2ccccc2)C2CC2)n1 [Example 3-12]
very good herbicidal activity: herbicidal activity pre-emergence against harmful plants [1] | herbicidal activity post-emergence against harmful plants [2] | herbicidal activity against harmful plants which are typical for rice crops [3]

CC(C)(F)c1nc(N)nc(N[C@@H](CCCc2cccc(Cl)c2)C2CC2)n1 [Example 3-18]
very good herbicidal activity: herbicidal activity pre-emergence against harmful plants [1] | herbicidal activity post-emergence against harmful plants [2] | herbicidal activity against harmful plants which are typical for rice crops [3]

CC(C)c1nc(N)nc(N[C@@H](CCCc2ccccc2)C2CCC2)n1 [Example 3-58]
very good herbicidal activity: herbicidal activity pre-emergence against harmful plants [1] | herbicidal activity post-emergence against harmful plants [2] | herbicidal activity against harmful plants which are typical for rice crops [3]

CC(C)Cc1nc(N)nc(NC(CCCc2ccccc2)C2CCC2)n1 (stereo not drawn) [Example 3-59]
very good herbicidal activity: herbicidal activity pre-emergence against harmful plants [1] | herbicidal activity post-emergence against harmful plants [2] | herbicidal activity against harmful plants which are typical for rice crops [3]

CC(C)(F)c1nc(N)nc(NC(CCCc2ccccc2)C2CCC2)n1 (stereo not drawn) [Example 3-64]
very good herbicidal activity: herbicidal activity pre-emergence against harmful plants [1] | herbicidal activity post-emergence against harmful plants [2] | herbicidal activity against harmful plants which are typical for rice crops [3]

CC(C)c1nc(N)nc(NC(CCCc2cccc(Cl)c2)C2CCC2)n1 (stereo not drawn) [Example 3-67]
very good herbicidal activity: herbicidal activity pre-emergence against harmful plants [1] | herbicidal activity post-emergence against harmful plants [2] | herbicidal activity against harmful plants which are typical for rice crops [3]

CC(C)(F)c1nc(N)nc(NC(CCCc2cccc(Cl)c2)C2CCC2)n1 (stereo not drawn) [Example 3-68]
very good herbicidal activity: herbicidal activity pre-emergence against harmful plants [1] | herbicidal activity post-emergence against harmful plants [2] | herbicidal activity against harmful plants which are typical for rice crops [3]

Cc1cccc(CCCC(Nc2nc(N)nc(C(C)C)n2)C2CCC2)c1 (stereo not drawn) [Example 3-71]
very good herbicidal activity: herbicidal activity pre-emergence against harmful plants [1] | herbicidal activity post-emergence against harmful plants [2] | herbicidal activity against harmful plants which are typical for rice crops [3]

Cc1cccc(CCCC(Nc2nc(N)nc(C(C)(C)F)n2)C2CCC2)c1 (stereo not drawn) [Example 3-72]
very good herbicidal activity: herbicidal activity pre-emergence against harmful plants [1] | herbicidal activity post-emergence against harmful plants [2] | herbicidal activity against harmful plants which are typical for rice crops [3]

COc1cccc(CCCC(Nc2nc(N)nc(C(C)C)n2)C2CCC2)c1 (stereo not drawn) [Example 3-75]
very good herbicidal activity: herbicidal activity pre-emergence against harmful plants [1] | herbicidal activity post-emergence against harmful plants [2] | herbicidal activity against harmful plants which are typical for rice crops [3]

COc1cccc(CCCC(Nc2nc(N)nc(C(C)(C)F)n2)C2CCC2)c1 (stereo not drawn) [Example 3-76]
very good herbicidal activity: herbicidal activity pre-emergence against harmful plants [1] | herbicidal activity post-emergence against harmful plants [2] | herbicidal activity against harmful plants which are typical for rice crops [3]

Nc1nc(NC(CCCc2ccc(Cl)cc2Cl)C2CC2)nc(C(F)(F)F)n1 (stereo not drawn) [Example 4-6]
very good herbicidal activity: herbicidal activity pre-emergence against harmful plants [1] | herbicidal activity post-emergence against harmful plants [2] | herbicidal activity against harmful plants which are typical for rice crops [3]

Cc1nc(N)nc(NC(CCCc2ccccc2)C2CC2)n1 (stereo not drawn) [Example 4-8]
very good herbicidal activity: herbicidal activity pre-emergence against harmful plants [1] | herbicidal activity post-emergence against harmful plants [2] | herbicidal activity against harmful plants which are typical for rice crops [3]

CCc1nc(N)nc(NC(CCCc2ccccc2)C2CC2)n1 (stereo not drawn) [Example 4-9]
very good herbicidal activity: herbicidal activity pre-emergence against harmful plants [1] | herbicidal activity post-emergence against harmful plants [2] | herbicidal activity against harmful plants which are typical for rice crops [3]

CC(C)c1nc(N)nc(NC(CCCc2ccccc2)C2CC2)n1 (stereo not drawn) [Example 4-11]
very good herbicidal activity: herbicidal activity pre-emergence against harmful plants [1] | herbicidal activity post-emergence against harmful plants [2] | herbicidal activity against harmful plants which are typical for rice crops [3]

CC(C)(F)c1nc(N)nc(N[C@H](CCCc2ccccc2)C2CC2)n1 [Example 4-12, 2-Amino-4-(1-fluoro-1-methylethyl)-6-[(1 R)4-phenyl-1-cyclopropylbutylamino]-1,3,5-triazine]
very good herbicidal activity: herbicidal activity pre-emergence against harmful plants [1] | herbicidal activity post-emergence against harmful plants [2] | herbicidal activity against harmful plants which are typical for rice crops [3]

CC(C)(F)c1nc(N)nc(NC(CCCc2cccc(Cl)c2)C2CC2)n1 (stereo not drawn) [Example 4-18]
very good herbicidal activity: herbicidal activity pre-emergence against harmful plants [1] | herbicidal activity post-emergence against harmful plants [2] | herbicidal activity against harmful plants which are typical for rice crops [3]

CC(C)c1nc(N)nc(NC(CCCc2ccccc2)C2CCC2)n1 (stereo not drawn) [Example 4-58]
very good herbicidal activity: herbicidal activity pre-emergence against harmful plants [1] | herbicidal activity post-emergence against harmful plants [2] | herbicidal activity against harmful plants which are typical for rice crops [3]

CC(C)Cc1nc(N)nc(NC(CCCc2ccccc2)C2CCC2)n1 (stereo not drawn) [Example 4-59]
very good herbicidal activity: herbicidal activity pre-emergence against harmful plants [1] | herbicidal activity post-emergence against harmful plants [2] | herbicidal activity against harmful plants which are typical for rice crops [3]

CC(C)(F)c1nc(N)nc(NC(CCCc2ccccc2)C2CCC2)n1 (stereo not drawn) [Example 4-64]
very good herbicidal activity: herbicidal activity pre-emergence against harmful plants [1] | herbicidal activity post-emergence against harmful plants [2] | herbicidal activity against harmful plants which are typical for rice crops [3]

CC(C)c1nc(N)nc(NC(CCCc2cccc(Cl)c2)C2CCC2)n1 (stereo not drawn) [Example 4-67]
very good herbicidal activity: herbicidal activity pre-emergence against harmful plants [1] | herbicidal activity post-emergence against harmful plants [2] | herbicidal activity against harmful plants which are typical for rice crops [3]

CC(C)(F)c1nc(N)nc(NC(CCCc2cccc(Cl)c2)C2CCC2)n1 (stereo not drawn) [Example 4-68]
very good herbicidal activity: herbicidal activity pre-emergence against harmful plants [1] | herbicidal activity post-emergence against harmful plants [2] | herbicidal activity against harmful plants which are typical for rice crops [3]
